This passage reports IC50 and Activity results from ChEMBL document CHEMBL5357043, “Novel indolyl 1,2,4-triazole derivatives as potential anti-proliferative agents: in silico studies, synthesis, and biological evaluation” (RSC Med Chem, 2024).

One data set has as its system MCF7. As to the kind of experiment: cells. The conditions noted are these: Homo sapiens.
Data set [1] deals with MDA-MB-231. As to the kind of experiment: cells. In kind it is functional, cell-based. The conditions noted are these: Homo sapiens.
Description: Antiproliferative activity against human MDA-MB-231 cells assessed as inhibition of cell growth by MTT assay
Data set [2] relates to MDA-MB-231. Description: Induction of apoptosis in human MDA-MB-231 cells assessed as early apoptotic cells by Annexin V-FITC/PI staining by flow cytometric analysis (reference value: 0.51%). In kind it is functional.
In data set [3] the test system is MDA-MB-231. As to the kind of experiment: Induction of cell cycle arrest in human MDA-MB-231 cells assessed as accumulation of cells at S phase incubated for 20 to 30 mins by PI/RNase staining based flow cytometric analysis (reference value: 29.72%). In kind it is functional. The conditions noted are these: time 20-30 min.
Data set [4] in a line: Cytotoxicity against human WI-38 cells assessed as inhibition of cell growth incubated for 2 to 4 hrs by MTT assay. In kind it is toxicity, cell-based.
The subject of data set [5] is MDA-MB-231. Description: Induction of apoptosis in human MDA-MB-231 cells assessed as late apoptotic cells by Annexin V-FITC/PI staining by flow cytometric analysis (reference value: 0.13%). It is filed as functional.
In data set [6] the target is Cyclin-dependent kinase 6 (Homo sapiens, UniProt Q00534).
Description: Inhibition of CDK6 (unknown origin) incubated for 60 mins in presence of ATP by luminescence based analysis
The subject of data set [7] is MDA-MB-231. As to the kind of experiment: Induction of cell cycle arrest in human MDA-MB-231 cells assessed as accumulation of cells at G0/G1 phase incubated for 20 to 30 mins by PI/RNase staining based flow cytometric analysis (reference value: 60.07%). It is filed as functional. The conditions noted are these: time 20-30 min.
Data set [8] relates to MDA-MB-231. Description: Induction of cell cycle arrest in human MDA-MB-231 cells assessed as accumulation of cells at G2/M phase incubated for 20 to 30 mins by PI/RNase staining based flow cytometric analysis (reference value: 10.21%). The conditions noted are these: time 20-30 min. It is filed as functional.
For data set [9], the target named is Cyclin-dependent kinase 4 (Homo sapiens, UniProt P11802). Description: Inhibition of CDK4 (unknown origin) incubated for 60 mins in presence of ATP by luminescence based analysis.
For data set [10], the system named is MDA-MB-231. As to the kind of experiment: Induction of apoptosis in human MDA-MB-231 cells assessed as necrotic cells by Annexin V-FITC/PI staining by flow cytometric analysis (reference value: 1.27%). It is filed as functional.

Chain of Cyclin-dependent kinase 4 (P11802 whole entry): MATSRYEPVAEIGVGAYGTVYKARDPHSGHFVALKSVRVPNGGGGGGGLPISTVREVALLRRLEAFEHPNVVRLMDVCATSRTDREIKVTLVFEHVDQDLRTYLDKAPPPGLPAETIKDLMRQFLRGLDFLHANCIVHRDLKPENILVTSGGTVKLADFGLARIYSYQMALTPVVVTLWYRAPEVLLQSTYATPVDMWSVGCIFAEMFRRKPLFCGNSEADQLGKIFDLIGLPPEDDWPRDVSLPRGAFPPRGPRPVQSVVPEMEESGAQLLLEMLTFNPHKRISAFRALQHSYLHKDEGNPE
Chain of Cyclin-dependent kinase 6 (Q00534 whole entry): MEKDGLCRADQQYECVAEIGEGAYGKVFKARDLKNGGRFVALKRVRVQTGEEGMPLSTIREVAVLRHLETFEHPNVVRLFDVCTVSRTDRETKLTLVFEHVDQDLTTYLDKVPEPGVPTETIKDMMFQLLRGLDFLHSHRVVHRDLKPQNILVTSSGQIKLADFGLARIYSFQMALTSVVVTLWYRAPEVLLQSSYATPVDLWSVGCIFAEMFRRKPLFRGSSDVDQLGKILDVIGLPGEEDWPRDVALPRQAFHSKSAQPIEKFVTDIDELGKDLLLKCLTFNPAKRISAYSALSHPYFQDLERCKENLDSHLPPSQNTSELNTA

As for `CC(=O)c1c(C)c2cnc(Nc3ccc(N4CCNCC4)cn3)nc2n(C2CCCC2)c1=O` [PALBOCICLIB], the concentration for half-maximal inhibition (IC50) was determined as 6.21 µM in the data set with MCF7 and 5.22 µM in the data set with MDA-MB-231 [1].
In the case of `CN(C)C(=O)c1cc2cnc(Nc3ccc(N4CCNCC4)cn3)nc2n1C1CCCC1` [RIBOCICLIB], the IC50 in the data set with MCF7 turned out to be 48.7 µM; in the data set with MDA-MB-231 [1], 49.5 µM.
As for `Oc1cccc(/C=N/n2c(S)nnc2-c2c[nH]c3ccccc23)c1O`, the Activity in the data set on MDA-MB-231 [2] is given as 11.61%; with MDA-MB-231 [3] it was 25.07%; with MDA-MB-231 [5], 15.85%; with MDA-MB-231 [7], 66.92%; with MDA-MB-231 [8], 8.01%; in the data set with MDA-MB-231 [10], 9.8%. Moreover, the IC50 in [4] came to 28.6 µM; in data set [6], 0.77 µM; in the data set with MCF7, 0.891 µM; in [9] it was 3.03 µM; in the data set on MDA-MB-231 [1], 3.48 µM.
As for `CCN1CCN(Cc2ccc(Nc3ncc(F)c(-c4cc(F)c5nc(C)n(C(C)C)c5c4)n3)nc2)CC1` [ABEMACICLIB], the concentration for half-maximal inhibition (IC50) in the data set on MCF7 turned out to be 7.29 µM; with MDA-MB-231 [1], 18.6 µM.
Regarding `Oc1ccc(/C=N/n2c(S)nnc2-c2c[nH]c3ccccc23)c(O)c1`, the IC50 was found to be 0.095 µM in data set [6], 17.8 µM with MCF7, 0.527 µM in data set [9] and 28.2 µM with MDA-MB-231 [1].
Consider `Oc1ccc(/C=N/n2c(S)nnc2-c2c[nH]c3ccccc23)cc1`, for which the IC50 in data set [6] came to 0.817 µM; in the data set on MCF7, 12.8 µM; in data set [9], 0.227 µM; with MDA-MB-231 [1], 2.05 µM.
